For nine compounds, IC50 results are on record in patent publication US20260138990A1, “TRICYCLIC FUSED IMIDAZOLE COMPOUNDS AS CD38 MODULATORS AND USES THEREOF” (AEOVIAN PHARMACEUTICALS, INC., priority 2023, published 2026).

pIC50: −log10 of the molar value.

Usually pIC50 stands for the IC50 on a negative log10 scale, so that one unit is a factor of ten.

The target of one assay is T1, mouse CD38 (Mus musculus, UniProt P56528).
T1 construct: purchased Bio-Techne GmbH 4947-AC
T1 sequence (P56528 1-304): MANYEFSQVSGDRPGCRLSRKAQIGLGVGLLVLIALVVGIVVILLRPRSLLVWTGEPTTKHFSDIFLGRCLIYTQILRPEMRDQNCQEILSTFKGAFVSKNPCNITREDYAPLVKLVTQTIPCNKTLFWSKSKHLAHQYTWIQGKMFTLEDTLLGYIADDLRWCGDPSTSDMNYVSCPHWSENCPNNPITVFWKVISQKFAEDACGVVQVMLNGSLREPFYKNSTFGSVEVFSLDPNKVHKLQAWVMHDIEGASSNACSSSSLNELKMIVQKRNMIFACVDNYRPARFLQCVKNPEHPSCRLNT
In words: NAD+ cyclase activity assay with mouse recombinant CD38 protein (ε-NAD fluorescence). It is filed as biochemical. The settings on record: 0.6 nM mouse CD38, substrate ε-NAD, 30 min preincubation, fluorescence 300/410 nm. The procedure, abridged:
(§1)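 Twelve-point threefold compound dilutions were given 30 min at room temperature with 0.6 nM mouse or 1.9 nM human CD38 before […] ε-NAD was added (pH 7.5 HEPES/sucrose/Tween buffer). The rate came from the linear-phase slope of ex 300/em 410 nm fluorescence against vehicle and no-CD38 controls.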

The next assay has as its target T2, human CD38 (Homo sapiens, UniProt P28907).
T2 construct: purchased Bio-Techne GmbH AVI2404
T2 sequence (P28907 1-300): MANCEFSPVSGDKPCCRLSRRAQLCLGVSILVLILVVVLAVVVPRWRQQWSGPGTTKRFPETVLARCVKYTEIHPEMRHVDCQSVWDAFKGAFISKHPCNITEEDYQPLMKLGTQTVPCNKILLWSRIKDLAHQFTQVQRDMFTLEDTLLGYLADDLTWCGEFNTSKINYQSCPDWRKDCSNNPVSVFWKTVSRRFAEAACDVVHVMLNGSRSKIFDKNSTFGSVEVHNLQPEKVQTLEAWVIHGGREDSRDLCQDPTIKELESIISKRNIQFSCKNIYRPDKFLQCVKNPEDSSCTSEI
In words: NAD+ cyclase activity assay with human recombinant CD38 protein (ε-NAD fluorescence). It is filed as biochemical. The settings on record: 1.9 nM human CD38, substrate ε-NAD, 30 min preincubation, fluorescence 300/410 nm. In short, it runs like this:
as §1

With `CC(C)(CO[C@H]1CC[C@H](NC(=O)c2cc(Cl)c3c(c2)-c2cncn2CCO3)CC1)C(F)(F)F` [Compound 170A, 8-Chloro-N-((1r,4r)-4-(3,3,3-trifluoro-2,2-dimethylpropoxy)cyclohexyl)-5,6-dihydrobenzo[f]imidazo[1,5-d][1,4]oxazepine-10-carboxamide], the pIC50 on mouse CD38 is 8.00 to 9.00; on human CD38 it was 7.00 to 7.52.
The matching figures for `CC(C)(CO[C@H]1CC[C@@H](NC(=O)c2cc(Cl)c3c(c2)-c2cncn2CCO3)CC1)C(F)(F)F` [Compound 171A, 8-Chloro-N-((1s,4s)-4-(3,3,3-trifluoro-2,2-dimethylpropoxy)cyclohexyl)-5,6-dihydrobenzo[f]imidazo[1,5-d][1,4]oxazepine-10-carboxamide]: less than 7.00 and less than 6.00.
Take `O=C(N[C@H]1CC[C@H](OC2CC(F)(F)C2)CC1)c1cc(Cl)c2c(c1)-c1cncn1CCO2` [Compound 172A, N-((1r,4r)-4-(3,3-difluorocyclobutoxy)cyclohexyl)-8-chloro-5,6-dihydrobenzo[f]imidazo[1,5-d][1,4]oxazepine-10-carboxamide]: the pIC50 was 8.00 to 9.00 at mouse CD38 and more than 7.52 on human CD38.
As for `O=C(N[C@H]1CC[C@@H](OC2CC(F)(F)C2)CC1)c1cc(Cl)c2c(c1)-c1cncn1CCO2` [Compound 173A, N-((1s,4s)-4-(3,3-difluorocyclobutoxy)cyclohexyl)-8-chloro-5,6-dihydrobenzo[f]imidazo[1,5-d][1,4]269xazepane-10-carboxamide], the negative logarithm of the IC50 (pIC50) was 7.00 to 8.00 on mouse CD38 and 6.00 to 7.00 on human CD38.
In the case of `C[C@@H]1CCC[C@H](C)[C@H]1NC(=O)c1cc(F)c2c(c1)-c1cncn1CCO2` [Compound 176A, N-(trans-2-trans-6-Dimethylcyclohexyl)-8-fluoro-5,6-dihydrobenzo[f]imidazo[1,5-d][1,4]oxazepine-10-carboxamide], the pIC50 was 8.00 to 9.00 on mouse CD38 and more than 7.52 on human CD38.
For `C[C@@H]1CCC[C@H](C)[C@@H]1NC(=O)c1cc(F)c2c(c1)-c1cncn1CCO2` [Compound 178A, N-(cis-2-cis-6-Dimethylcyclohexyl)-8-fluoro-5,6-dihydrobenzo[f]imidazo[1,5-d][1,4]oxazepine-10-carboxamide], the negative-log IC50 (pIC50) was 8.00 to 9.00 at mouse CD38 and more than 7.52 at human CD38.
For “N-((1r,4r)-4-((1-(Trifluoromethyl)cyclopropyl)methoxy)cyclohexyl)-5,6-dihydrobenzo[f]imidazo[1,5-d][1,4]oxazepine-10-carboxamide [Compound 142A]”, in that order: 8.00 to 9.00 and more than 7.52.
For “N-((1r,4r)-4-((Tetrahydrofuran-2-yl)methoxy)cyclohexyl)-5,6-dihydrobenzo[f]imidazo[1,5-d][1,4]oxazepine-10-carboxamide [Compound 76A]”, in that order: 8.00 to 9.00 and more than 7.52.
Consider “N-((1s,4s)-4-((Tetrahydrofuran-2-yl)methoxy)cyclohexyl)-5,6-dihydrobenzo[f]imidazo[1,5-d][1,4]oxazepine-10-carboxamide [Compound 75A]”, for which the pIC50 at mouse CD38 is less than 7.00; on human CD38, less than 6.00.
